Results published in patent US20170190671A1, “BIS(ARYL)CATECHOL DERIVATIVES AS HERBICIDES” (E I DU PONT DE NEMOURS AND COMPANY, priority 2014, published 2017).

How the values were obtained:
Assay type in all cases: in vivo
[1] = tested on: barnyardgrass (Echinochloa crus-galli); test: Test B flooded paddy; settings: 250 g ai/ha, Flood, 13 to 15 days, scale 0 (no effect) to 100 (complete control)
From the text: (§1) At time of treatment, test pots were flooded to 3 cm above the soil surface, treated by application of test compounds directly to the paddy water, and then maintained at that water depth for the duration of the test. Treated plants and controls were maintained in a greenhouse for 13 to 15 days, after which time all species were compared to controls and visually evaluated. […] A dash (-) response means no test result.

[2] = tested on: ducksalad (Heteranthera limosa); test: Test B flooded paddy; settings: 250 g ai/ha, Flood, 13 to 15 days, scale 0 (no effect) to 100 (complete control)
From the text: as §1

[3] = tested on: rice (Oryza sativa); test: Test B flooded paddy; settings: 250 g ai/ha, Flood, 13 to 15 days, scale 0 (no effect) to 100 (complete control)
From the text: as §1

[4] = tested on: sedge, umbrella (small-flower umbrella sedge, Cyperus difformis); test: Test B flooded paddy; settings: 250 g ai/ha, Flood, 13 to 15 days, scale 0 (no effect) to 100 (complete control)
From the text: as §1

[5] = tested on: Italian ryegrass (Lolium multiflorum); test: Test A preemergence; settings: 0 to 100 scale (0 no effect, 100 complete control)
From the text: (§2) Seeds of plant species selected from barnyardgrass (Echinochloa crus-galli), kochia (Kochia scoparia), ragweed (common ragweed, Ambrosia elatior), Italian ryegrass (Lolium multiflorum), large (Lg) crabgrass (Digitaria sanguinalis), giant foxtail (Setaria faberii), morningglory (Ipomoea spp.), pigweed (Amaranthus retroflexus), velvetleaf (Abutilon theophrasti), wheat (Triticum aestivum), and corn (Zea mays) were planted into a blend of loam soil and sand and treated preemergence with a directed soil spray using test chemicals formulated in a non-phytotoxic solvent mixture which included a surfactant.
(§3) At the same time, plants selected from these crop and weed species and also blackgrass (Alopecurus myosuroides), and galium (catchweed bedstraw, Galium aparine) were planted in pots containing the same blend of loam soil and sand and treated with postemergence applications of test chemicals formulated in the same manner. Plants ranged in height from 2 to 10 cm and were in the one- to two-leaf stage for the postemergence treatment. Treated plants and untreated controls were maintained in a greenhouse for approximately 10 days, after which time all treated plants were compared to untreated controls and visually evaluated for injury. Plant response ratings, summarized in Table A, are based on a 0 to 100 scale where 0 is no effect and 100 is complete control. A dash (-) response means no test result.

[6] = tested on: barnyardgrass (Echinochloa crus-galli); test: Test A preemergence; settings: for Barnyardgrass plant response rating: 31 g ai/ha, 0 to 100 scale (0 no effect, 100 complete control); for Plant response rating, Barnyardgrass: 125 g ai/ha, 0 to 100 scale
From the text: as §2, §3

[7] = tested on: giant foxtail (Setaria faberii); test: Test A preemergence; settings: 0 to 100 scale (0 no effect, 100 complete control)
From the text: as §2, §3

[8] = tested on: kochia (Kochia scoparia); test: Test A preemergence; settings: 0 to 100 scale (0 no effect, 100 complete control)
From the text: as §2, §3

[9] = tested on: pigweed (Amaranthus retroflexus); test: Test A preemergence; settings: 0 to 100 scale (0 no effect, 100 complete control)
From the text: as §2, §3

[10] = tested on: ragweed (common ragweed, Ambrosia elatior); test: Test A preemergence; settings: 0 to 100 scale (0 no effect, 100 complete control)
From the text: as §2, §3

[11] = tested on: Italian ryegrass (Lolium multiflorum); test: Test A postemergence; settings: 0 to 100 scale
From the text: as §2, §3

[12] = tested on: barnyardgrass (Echinochloa crus-galli); test: Test A postemergence; settings: 0 to 100 scale
From the text: as §2, §3

[13] = tested on: blackgrass (Alopecurus myosuroides); test: Test A postemergence; settings: 0 to 100 scale
From the text: as §2, §3

[14] = tested on: corn (Zea mays); test: Test A postemergence; settings: 0 to 100 scale
From the text: as §2, §3

[15] = tested on: galium (catchweed bedstraw, Galium aparine); test: Test A postemergence; settings: 0 to 100 scale
From the text: as §2, §3

[16] = tested on: giant foxtail (Setaria faberii); test: Test A postemergence; settings: 0 to 100 scale
From the text: as §2, §3

[17] = tested on: kochia (Kochia scoparia); test: Test A postemergence; settings: 0 to 100 scale
From the text: as §2, §3

[18] = tested on: pigweed (Amaranthus retroflexus); test: Test A postemergence; settings: 0 to 100 scale
From the text: as §2, §3

[19] = tested on: ragweed (common ragweed, Ambrosia elatior); test: Test A postemergence; settings: 0 to 100 scale
From the text: as §2, §3

[20] = tested on: wheat (Triticum aestivum); test: Test A postemergence; settings: 0 to 100 scale
From the text: as §2, §3

Row | SMILES | Plant response rating, Barnyardgrass [1] | Plant response rating, Ducksalad [2] | Plant response rating, Rice [3] | Plant response rating, Sedge, Umbrella [4] | Ryegrass, Italian plant response rating ([5]; 31 g ai/ha) | Ryegrass, Italian plant response rating ([5]; 125 g ai/ha) | Barnyardgrass plant response rating [6] | Plant response rating, Barnyardgrass [6] | Foxtail, Giant plant response rating ([7]; 31 g ai/ha) | Foxtail, Giant plant response rating ([7]; 125 g ai/ha) | Kochia plant response rating ([8]; 31 g ai/ha) | Kochia plant response rating ([8]; 125 g ai/ha) | Pigweed plant response rating ([9]; 31 g ai/ha) | Pigweed plant response rating ([9]; 125 g ai/ha) | Ragweed plant response rating ([10]; 31 g ai/ha) | Ragweed plant response rating ([10]; 125 g ai/ha) | Plant response rating, Ryegrass, Italian ([11]; 31 g ai/ha) | Plant response rating, Ryegrass, Italian ([11]; 125 g ai/ha) | Plant response rating, Barnyardgrass ([12]; 31 g ai/ha) | Plant response rating, Barnyardgrass ([12]; 125 g ai/ha) | other results
1 | N#Cc1cccc(Oc2ncc(Cl)cn2)c1Oc1ccc(C(F)(F)F)nn1 [Compound 26] | 0 | 70 | 0 | 60 | 0 | 0 | 0 | 20 | 20 | 60 | 20 | 30 | 90 | 100 | 0 | 20 | 0 | 0 | 0 | 20 | Plant response rating, Blackgrass ([13]; 31 g ai/ha): 0; Plant response rating, Blackgrass ([13]; 125 g ai/ha): 30; Plant response rating, Corn ([14]; 31 g ai/ha): 0; Plant response rating, Corn ([14]; 125 g ai/ha): 20; Plant response rating, Galium ([15]; 31 g ai/ha): 30; Plant response rating, Galium ([15]; 125 g ai/ha): 50; Plant response rating, Foxtail, Giant ([16]; 31 g ai/ha): 10; Plant response rating, Foxtail, Giant ([16]; 125 g ai/ha): 30; Plant response rating, Kochia ([17]; 31 g ai/ha): 40; Plant response rating, Kochia ([17]; 125 g ai/ha): 60; Plant response rating, Pigweed ([18]; 31 g ai/ha): 50; Plant response rating, Pigweed ([18]; 125 g ai/ha): 80; Plant response rating, Ragweed ([19]; 31 g ai/ha): 30; Plant response rating, Ragweed ([19]; 125 g ai/ha): 30; Plant response rating, Wheat ([20]; 31 g ai/ha): 0; Plant response rating, Wheat ([20]; 125 g ai/ha): 10
2 | Fc1ccc(F)c(Oc2ncc(C(F)(F)F)cn2)c1Oc1ncc(C(F)(F)F)cn1 [Compound 30] | 0 | 0 | 0 | 0 | 0 | 0 | 0 | 10 | 10 | 50 | 10 | 20 | 90 | 100 | 0 | 0 | 0 | 0 | 0 | 0 | Plant response rating, Blackgrass ([13]; 31 g ai/ha): 0; Plant response rating, Blackgrass ([13]; 125 g ai/ha): 30; Plant response rating, Corn ([14]; 31 g ai/ha): 0; Plant response rating, Corn ([14]; 125 g ai/ha): 0; Plant response rating, Galium ([15]; 31 g ai/ha): 60; Plant response rating, Galium ([15]; 125 g ai/ha): 70; Plant response rating, Foxtail, Giant ([16]; 31 g ai/ha): 0; Plant response rating, Foxtail, Giant ([16]; 125 g ai/ha): 10; Plant response rating, Kochia ([17]; 31 g ai/ha): 0; Plant response rating, Kochia ([17]; 125 g ai/ha): 0; Plant response rating, Pigweed ([18]; 31 g ai/ha): 60; Plant response rating, Pigweed ([18]; 125 g ai/ha): 70; Plant response rating, Ragweed ([19]; 31 g ai/ha): 0; Plant response rating, Ragweed ([19]; 125 g ai/ha): 0; Plant response rating, Wheat ([20]; 31 g ai/ha): 0; Plant response rating, Wheat ([20]; 125 g ai/ha): 0
